Consider five molecules from patent EP0752477A2, “Expression vectors that produce steroid receptors, steroid receptor chimera, screening assays for steroid receptors and clinical assays using synthesized receptors and receptor vectors” (BAYLOR COLLEGE OF MEDICINE, priority 1990, dated 1991).

One assay has as its system human estrogen receptor. Briefly: Estrogen responsive reporter assay in yeast, wild type estrogen receptor. The assay is classed as cell-based. Conditions: ER. The source says:
(§1) The mechanism by which steroid receptors enhance transcription is unclear, however, there is a clear correlation between the ability of the receptor to activate transcription and the presence of an acidic activation region in the protein. […] As illustrated in Fig. 9 this was accomplished for the human estrogen receptor by digestion of the yeast expression vector for estrogen, YEpE2 with Notl, filling in the ends with T4 polymerase and religating in the presence of the filled in Rsal - Sall fragment of the VP16 protein. After the receptor is inserted in the proper orientation it produces a chimeric receptor which includes within its reading frame a VP16 activating domain.
(§2) A comparison of the wild type estrogen receptor and the modified receptor was made in yeast using the estrogen responsive reporters.
In general terms: Reporter assays use an easily measured gene product as a stand-in for the process of interest.

For assay [1], the target named is T1, chicken progesterone receptor (Gallus gallus, UniProt P07812).
T1 construct: ubiquitin (N, cleaved yes); expressed in transfected cells
T1 sequence (P07812 1-786): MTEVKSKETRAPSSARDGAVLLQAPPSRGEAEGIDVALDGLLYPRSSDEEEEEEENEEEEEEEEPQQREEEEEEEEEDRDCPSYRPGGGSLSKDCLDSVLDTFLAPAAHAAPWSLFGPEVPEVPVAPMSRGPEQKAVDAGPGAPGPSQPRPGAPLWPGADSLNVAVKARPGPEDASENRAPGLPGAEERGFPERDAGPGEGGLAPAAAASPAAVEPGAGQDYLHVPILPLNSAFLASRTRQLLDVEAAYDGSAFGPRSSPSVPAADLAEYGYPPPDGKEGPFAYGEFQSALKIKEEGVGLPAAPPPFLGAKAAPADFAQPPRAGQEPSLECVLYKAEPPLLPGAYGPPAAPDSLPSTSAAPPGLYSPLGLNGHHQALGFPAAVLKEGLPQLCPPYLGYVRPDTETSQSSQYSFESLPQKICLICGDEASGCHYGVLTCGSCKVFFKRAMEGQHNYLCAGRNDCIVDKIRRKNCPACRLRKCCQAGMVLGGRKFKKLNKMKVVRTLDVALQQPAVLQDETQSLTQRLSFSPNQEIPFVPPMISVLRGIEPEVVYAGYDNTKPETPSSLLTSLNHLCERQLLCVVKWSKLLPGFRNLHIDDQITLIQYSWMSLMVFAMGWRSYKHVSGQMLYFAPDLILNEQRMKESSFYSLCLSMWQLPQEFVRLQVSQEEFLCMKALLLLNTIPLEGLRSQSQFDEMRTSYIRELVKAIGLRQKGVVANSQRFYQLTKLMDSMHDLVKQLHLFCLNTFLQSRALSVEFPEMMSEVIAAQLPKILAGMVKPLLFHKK
Briefly: β-Galactosidase transcription assay in yeast with expression plasmid and reporter YRpP1. The assay is classed as cell-based. The method, then:
A reporter YRpP1 containing the progesterone responsive sequence and the β-Galactosidase gene was used to quantitate the transcriptional activity of the chicken progesterone receptor. Yeast containing both the expression and the reporter plasmids was grown overnight in minimal media supplemented with 2% glucose. […] Four sets of tubes were inoculated (a) no additions, (b) +100µM CuSO4, (c) +0.1µM progesterone, and (d) +100µM CuSO4, 0.1µM progesterone. When the cells reached mid-log phase they were harvested by centrifugation. The cells were lysed using glass beads and the cytosol was clarified by centrifugation. Aliquots (1-100µg) of protein were assayed for β-Galactosidase activity according to the method of Miller and expressed as units/mg protein.

Another assay relates to YRpEG3 reporter. Briefly: Activity of the YRpEG3 reporter alone (no receptor). The format is cell-based, Saccharomyces cerevisiae. Here is the method:
The transcriptional activity of the receptor was assayed under similar conditions to Example 15 except that the cells were grown in glucose (Fig. 1B). In the presence of glucose, the transcriptional activity of GAL4 is completely repressed because the GAL4 protein is incapable of binding to its response element. Under these conditions estrogen receptor activation of the GAL4-ERE can be monitored without interference. […] At all concentrations of receptor the activation of transcription was entirely hormone dependent.

For another assay, the system named is Super ER. As to the kind of experiment: Estrogen responsive reporter assay in yeast, modified (super) estrogen receptor with VP16 activating domain. The assay is classed as cell-based, human. Conditions: +CuSO4, no E2.
Description: as §1, §2

Another assay concerns GAL4. Briefly: Activation of GAL4/ERE binding site chimera reporters by galactose in BJ3505. The format is cell-based, Saccharomyces cerevisiae. To be noted: grown in galactose. From the text:
It is known that the estrogen receptor binds to and activates gene transcription through a 13 bp palindromic sequence (ERE). Placing ERE upstream of the promoter in a CYC-l-β-gal fusion vector and transforming into Saccharomyces cerevisiae results in a reporter which responded to estrogen in a receptor-dependent manner. To monitor the binding of the estrogen receptor to the ERE sequence in vivo, an interference assay was developed. An oligonucleotide containing a GAL4 (17 mer) recognition sequence and an ERE was constructed such that the two sites would overlap by 1 base. In this way only ER or GAL4 but not both molecules could occupy the same site. This sequence was cloned as a single, double, or triple copy distal to the promoter in a yeast iso-l-cytochrome C reporter (PC3).
These plasmids were introduced into yeast and assayed for transcriptional activity in the presence of glucose and galactose. The results are shown in Table I and reveal that galactose induced transcription of the reporter gene, and activity increased dramatically as the number of GAL sites increased. When grown in glucose, transcriptional activity was completely repressed.

Structures are written as SMILES.

Turning to `O=S(=O)([O-])[O-].[Cu+2]` [CuSO4], the “activity of estrogen responsive reporter” value in the assay with human estrogen receptor (+CuSO4, no E2) is reported as 473 Miller units per milligram of protein; with Super ER, 4133 Miller units per milligram of protein. Also, the β-Galactosidase activity in assay [1] (+100µM CuSO4, no progesterone) is on record as <500 Miller units. Also, the EC50 in assay [1] (CUP1 promoter driven receptor expression, other data, read-out: concentration sufficient to activate half maximally this transcription unit) came out at 1000 nM. The “direct effects on the activity of the YRpEG3 reporter alone” value (from here on “direct effects on the activity”) with YRpEG3 reporter is reported as “no direct effects”.
As for `CC(=O)[C@H]1CC[C@H]2[C@@H]3CCC4=CC(=O)CC[C@]4(C)[C@H]3CC[C@]12C` [Prog., progesterone, reference compound], the β-Galactosidase activity is <500 Miller units in assay [1] (+0.1µM progesterone, no CuSO4) and 50,000 Miller units in assay [1] (+100µM CuSO4, 0.1µM progesterone).
Turning to `COc1ccc2c(c1)CCC(c1ccccc1)=C2c1ccc(OCCN2CCCC2)cc1` [nafoxidine], the “direct effects on the activity” value with YRpEG3 reporter was “no direct effects”.
With `O=C[C@H](O)[C@@H](O)[C@@H](O)[C@H](O)CO` [Galactose, galactose], the “TRANSCRIPTIONAL ACTIVITY” value is 860 in the assay on GAL4 (reporter YRpEG1, 1 binding site); 2,350 with GAL4 (reporter YRpEG2, 2 binding sites); 16,500 with GAL4 (reporter YRpEG3, 3 binding sites).
As for `C[C@]12CC[C@@H]3c4ccc(O)cc4CC[C@H]3[C@@H]1CC[C@@H]2O` [E2, estradiol], the “activity of estrogen responsive reporter” value in the assay with human estrogen receptor (+CuSO4+E2) is given as 4344 Miller units per milligram of protein; with human estrogen receptor (+E2) it was 5760 Miller units per milligram of protein. The “direct effects on the activity” value in the assay with YRpEG3 reporter is given as “no direct effects”.
